Activity calls are given as the source filed them. The calls are words filed in the database; no cut-off is given here.
Experiments:
[1] = molecular target: T1, Prostaglandin G/H synthase 2 (Mus musculus, UniProt Q05769); test: Inhibition of COX2 in mouse LPS-stimulated RAW264.7 cells after 30 mins; format: cell-based
T1 sequence (Q05769 whole entry): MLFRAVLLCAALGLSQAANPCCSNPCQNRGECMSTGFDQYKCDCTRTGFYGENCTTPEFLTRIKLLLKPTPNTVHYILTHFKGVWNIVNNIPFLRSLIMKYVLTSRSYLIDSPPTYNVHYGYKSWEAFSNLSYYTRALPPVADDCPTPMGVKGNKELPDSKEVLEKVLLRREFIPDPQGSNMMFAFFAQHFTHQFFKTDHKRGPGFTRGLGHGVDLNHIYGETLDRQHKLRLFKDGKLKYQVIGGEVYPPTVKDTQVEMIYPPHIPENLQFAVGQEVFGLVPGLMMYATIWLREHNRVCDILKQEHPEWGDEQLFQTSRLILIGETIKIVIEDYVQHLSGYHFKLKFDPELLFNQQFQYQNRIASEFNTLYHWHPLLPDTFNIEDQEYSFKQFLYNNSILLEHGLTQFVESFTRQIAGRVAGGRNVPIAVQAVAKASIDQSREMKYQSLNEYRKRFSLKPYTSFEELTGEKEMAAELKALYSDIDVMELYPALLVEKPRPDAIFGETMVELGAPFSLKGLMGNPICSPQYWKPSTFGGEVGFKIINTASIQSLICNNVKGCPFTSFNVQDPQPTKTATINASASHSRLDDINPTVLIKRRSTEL

[2] = molecular target: T2, Prostaglandin G/H synthase 1 (Mus musculus) (UniProt P22437); test: Inhibition of COX1 in mouse LPS-stimulated RAW264.7 cells at up to 5 uM after 30 mins; format: cell-based
T2 sequence (whole entry): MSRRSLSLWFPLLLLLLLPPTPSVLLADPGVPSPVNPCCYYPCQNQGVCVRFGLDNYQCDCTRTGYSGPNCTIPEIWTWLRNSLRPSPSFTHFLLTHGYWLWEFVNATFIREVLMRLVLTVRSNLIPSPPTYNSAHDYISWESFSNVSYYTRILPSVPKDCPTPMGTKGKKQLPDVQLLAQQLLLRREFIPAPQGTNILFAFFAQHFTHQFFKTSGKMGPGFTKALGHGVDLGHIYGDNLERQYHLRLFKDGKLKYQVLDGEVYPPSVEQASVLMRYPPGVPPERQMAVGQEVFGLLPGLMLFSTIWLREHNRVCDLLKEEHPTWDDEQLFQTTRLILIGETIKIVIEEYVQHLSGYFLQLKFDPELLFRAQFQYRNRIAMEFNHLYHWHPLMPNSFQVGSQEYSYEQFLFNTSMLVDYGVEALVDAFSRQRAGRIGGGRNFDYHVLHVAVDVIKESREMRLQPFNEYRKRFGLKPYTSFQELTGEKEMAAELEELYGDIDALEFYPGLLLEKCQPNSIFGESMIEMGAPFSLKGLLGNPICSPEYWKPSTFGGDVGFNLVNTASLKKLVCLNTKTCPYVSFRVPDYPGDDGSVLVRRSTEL

[3] = molecular target: T3, Prostaglandin G/H synthase 1 (Ovis aries, UniProt P05979); test: Inhibition of ovine purified COX1 after 20 mins
T3 sequence (P05979 whole entry): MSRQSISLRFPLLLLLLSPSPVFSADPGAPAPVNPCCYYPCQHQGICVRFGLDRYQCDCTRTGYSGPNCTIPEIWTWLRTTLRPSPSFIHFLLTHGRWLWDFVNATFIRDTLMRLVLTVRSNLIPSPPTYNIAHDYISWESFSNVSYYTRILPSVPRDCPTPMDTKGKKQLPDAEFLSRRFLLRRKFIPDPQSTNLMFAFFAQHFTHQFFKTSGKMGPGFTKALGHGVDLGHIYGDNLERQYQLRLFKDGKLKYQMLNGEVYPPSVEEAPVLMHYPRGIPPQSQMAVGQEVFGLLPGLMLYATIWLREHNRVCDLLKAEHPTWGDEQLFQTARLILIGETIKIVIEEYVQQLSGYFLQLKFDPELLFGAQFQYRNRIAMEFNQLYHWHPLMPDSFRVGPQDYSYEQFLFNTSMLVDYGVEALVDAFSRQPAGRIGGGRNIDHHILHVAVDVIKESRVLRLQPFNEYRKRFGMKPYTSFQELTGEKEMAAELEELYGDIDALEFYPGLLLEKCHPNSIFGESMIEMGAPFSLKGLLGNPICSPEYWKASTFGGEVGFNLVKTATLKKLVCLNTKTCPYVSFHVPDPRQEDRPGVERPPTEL

IC50 [1] [µM]	inhibition [2]	IC50 [3] [µM]	Compound
0.03	inactive	> 4	CS(=O)(=O)c1ccc(-n2nc(C(F)(F)F)cc2-c2ccc(I)cc2)cc1
–	–	> 4	COC(=O)c1cc(-c2cccc(I)c2)n(-c2ccc(S(N)(=O)=O)cc2)n1
–	–	> 4	COC(=O)c1cc(-c2ccc(I)cc2)n(-c2ccc(S(N)(=O)=O)cc2)n1
–	–	> 4	NS(=O)(=O)c1ccc(-n2nc(CCC(=O)O)cc2-c2ccc(I)cc2)cc1
2.7	–	> 4	CCOC(=O)c1cc(-c2ccc(I)cc2)n(-c2ccc(S(N)(=O)=O)cc2)n1
–	–	> 4	COC(=O)c1cc(-c2ccc(I)cc2)n(-c2ccc(S(C)(=O)=O)cc2)n1
–	–	> 4	NS(=O)(=O)c1ccc(-n2nc(CCC(=O)O)cc2-c2cccc(I)c2)cc1
–	–	> 4	CS(=O)(=O)c1ccc(-n2nc(C(F)(F)F)cc2-c2cccc(I)c2)cc1
–	–	> 4	COC(=O)c1cc(-c2cccc(I)c2)n(-c2ccc(S(C)(=O)=O)cc2)n1

Source: ChEMBL document CHEMBL1671837, “[I]-Celecoxib Analogues as SPECT Tracers of Cyclooxygenase-2 in Inflammation” (ACS Med Chem Lett, 2011)
